# Values joined by “and” are separate entries in the source; they are usually repeats but may differ in a detail not shown here. Identical values can stand only once.
# How the values were obtained:
# PC-3 cells [1] = test: Colony formation assay; assay type: cell-based, human; conditions: 2 µM, replicates
# PC-3 xenograft = test: In vivo antitumor activity, PC-3 xenograft mouse model; design: species or system BALB/c nude mice; conditions: Palbociclib group; for tumor volume (Figure S10a): in mm³ (unit assumed)
# 22Rv1 cells [2] = test: Colony formation assay; assay type: cell-based, human; conditions: 22Rv1, 0.5 μM, replicates
# DU145 cells [3] = test: Colony formation assay; assay type: cell-based, human; conditions: DU145, 2 μM, replicates
# 22Rv1 cells [4] = test: Cell cycle assay (PI flow cytometry); assay type: cell-based, human; conditions: 22Rv1, 0.5 μM, replicates
# PC-3 cells [5] = test: Cell cycle assay (PI flow cytometry); assay type: cell-based, human; conditions: PC-3, 2 µM, replicates
# DU145 cells [6] = test: Cell cycle assay (PI flow cytometry); assay type: cell-based, human; conditions: DU145, 2 μM, replicates
# 22Rv1 cells [7] = test: Apoptosis assay (Annexin V-APC/PI flow cytometry); assay type: cell-based, human; conditions: 22Rv1, 0.5 μM, replicates
# PC-3 cells [8] = test: Apoptosis assay (Annexin V-APC/PI flow cytometry); assay type: cell-based, human; conditions: PC-3; 2 µM; replicates
# DU145 cells [9] = test: Apoptosis assay (Annexin V-APC/PI flow cytometry); assay type: cell-based, human; conditions: DU145, 2 μM, replicates
# 22Rv1 cells [10] = test: Cell growth assay (5-day course); assay type: cell-based, human; conditions: 22Rv1, 0.5 µM
# PC-3 cells [11] = test: Cell growth assay (5-day course); assay type: cell-based, human; conditions: PC-3, 4 µM; for Relative proliferation rate / optical density: replicates
# DU145 cells [12] = test: Cell growth assay (5-day course); assay type: cell-based, human; conditions: DU145, 2 μM
# PC-3 cells [13] = test: Invasion assay (transwell); assay type: cell-based, human; conditions: PC-3; 2 µM; replicates
# DU145 cells [14] = test: Invasion assay (transwell); assay type: cell-based, human; conditions: DU145, 2 μM, replicates
# 22Rv1 cells [15] = test: Migration assay (transwell); assay type: cell-based, human; conditions: 22Rv1, 0.5 μM, replicates
# PC-3 cells [16] = test: Migration assay (transwell); assay type: cell-based, human; conditions: PC-3; 2 µM; replicates
# DU145 cells [17] = test: Migration assay (transwell); assay type: cell-based, human; conditions: DU145, 2 μM, replicates
structure (smiles),measurement,setting,value
CC(=O)c1c(C)c2cnc(Nc3ccc(N4CCNCC4)cn3)nc2n(C2CCCC2)c1=O [palbociclib],Colony formation (cell number),PC-3 cells [1],78 cell number and 83 cell number and 81 cell number
same,body weight (Figure S10b),"PC-3 xenograft; day 1, individual mice, in g (unit assumed)",20.3 and 18.7 and 20.4 and 19.9 and 20.5 and 20.1 and 19.3 and 19.6
same,tumor volume (Figure S10a),"PC-3 xenograft; day 1, individual mice",71.756 and 85.3384 and 76.4514 and 97.6139 and 96.2115 and 81.8398 and 86.3514 and 80.8996
same,body weight (Figure S10b),"PC-3 xenograft; day 3, individual mice",20.6 (2×) and 19.9 (2×) and 20.3 (2×) and 20.4 and 19.5
same,tumor volume (Figure S10a),"PC-3 xenograft; day 3, individual mice",100.82 and 125.949 and 118.537 and 171.398 and 182.064 and 137.067 and 104.176 and 152.65
same,body weight (Figure S10b),"PC-3 xenograft; day 5, individual mice, in g (unit assumed)",20.8 and 20.1 and 20.9 and 20.5 and 20.7 and 20.6 and 19.4 and 20.3
same,tumor volume (Figure S10a),"PC-3 xenograft; day 5, individual mice",153.25 and 178.1 and 171.863 and 263.764 and 233.187 and 184.767 and 136.023 and 212
same,body weight (Figure S10b),"PC-3 xenograft; day 7, individual mice",21.1 (2×) and 20.4 (3×) and 20.6 and 20.9 and 19.6
same,tumor volume (Figure S10a),"PC-3 xenograft; day 7, individual mice",216.949 and 236.787 and 227.898 and 326.971 and 317.909 and 235.081 and 192.895 and 301.873
same,body weight (Figure S10b),"PC-3 xenograft; day 9, individual mice",21.3 and 20.2 and 21.1 and 20.9 (2×) and 21.2 and 20.1 and 19.8
same,tumor volume (Figure S10a),"PC-3 xenograft; day 9, individual mice",326.253 and 371.781 and 295.973 and 465.763 and 471.469 and 352.991 and 279.054 and 463.034
same,body weight (Figure S10b),"PC-3 xenograft; day 11, individual mice",21 and 20.5 and 21.4 and 21.2 and 21.5 (2×) and 20.3 and 20.1
same,tumor volume (Figure S10a),"PC-3 xenograft; day 11, individual mice",372.859 and 454.695 and 359.079 and 528.072 and 529.867 and 450.398 and 332.776 and 546.405
same,body weight (Figure S10b),"PC-3 xenograft; day 13, individual mice, in g (unit assumed)",21.3 and 20.8 and 21.6 and 21.5 and 22 and 20.7 and 20.4 and 21.8
same,tumor volume (Figure S10a),"PC-3 xenograft; day 13, individual mice",420.513 and 508.608 and 384.455 and 605.279 and 564.127 and 444.148 and 375.063 and 606.531
same,body weight (Figure S10b),"PC-3 xenograft; day 15, individual mice",21.1 and 20.8 and 21.3 and 21.6 and 22.2 (2×) and 20.3 and 20.7
same,tumor volume (Figure S10a),"PC-3 xenograft; day 15, individual mice",457.463 and 542.009 and 415.332 and 636.893 and 637.934 and 467.888 and 410.165 and 646.315
same,body weight (Figure S10b),"PC-3 xenograft; day 17, individual mice, in g (unit assumed)",21.5 and 21.1 and 21.7 and 22 and 22.3 and 20.6 and 21 and 22.4
same,tumor volume (Figure S10a),"PC-3 xenograft; day 17, individual mice",524.733 and 575.217 and 457.759 and 764.115 and 735.045 and 549.485 and 474.267 and 700.215
same,body weight (Figure S10b),"PC-3 xenograft; day 19, individual mice, in g (unit assumed)",21.8 and 21.4 and 22 and 22.2 and 22.5 and 20.9 and 21.1 and 22.7
same,tumor volume (Figure S10a),"PC-3 xenograft; day 19, individual mice",535.372 and 736.543 and 494.255 and 792.24 and 789.87 and 530.997 and 470.291 and 757.507
same,body weight (Figure S10b),"PC-3 xenograft; day 21, individual mice",22.2 (2×) and 21.8 and 22.6 and 23 and 21.2 and 21.5 and 22.9
same,tumor volume (Figure S10a),"PC-3 xenograft; day 21, individual mice",606.966 and 810.199 and 550.471 and 875.109 and 842.441 and 533.366 and 544.597 and 821.393
same,body weight (Figure S10b),"PC-3 xenograft; day 23, individual mice, in g (unit assumed)",22.4 and 21.9 and 22.5 and 22.9 and 23.5 and 21.6 and 21.7 and 23.3
same,tumor volume (Figure S10a),"PC-3 xenograft; day 23, individual mice",636.352 and 826.869 and 562.019 and 936.064 and 895.067 and 564.812 and 586.01 and 861.421
same,body weight (Figure S10b),"PC-3 xenograft; day 25, individual mice, in g (unit assumed)",22.7 and 22.2 and 22.8 and 23.3
same,tumor volume (Figure S10a),"PC-3 xenograft; day 25, individual mice",672.525 and 833.997 and 554.501 and 942.419
same,tumor weight (Figure S10c),"PC-3 xenograft; individual mice, in g (unit assumed)",0.86 and 0.74 and 1.05 and 0.97 and 0.73 and 0.85 and 0.69 and 0.92
same,Colony formation (cell number),22Rv1 cells [2],250 cell number and 274 cell number and 246 cell number
same,Colony formation (cell number),DU145 cells [3],150 cell number and 158 cell number and 148 cell number
same,Cell cycle percentages ( % ) G0/G1,22Rv1 cells [4],79.03% and 81.73% and 83.36%
same,Cell cycle percentages ( % ) G2/M,22Rv1 cells [4],9.98% and 8.76% and 8.18%
same,Cell cycle percentages ( % ) S,22Rv1 cells [4],10.99% and 9.51% and 8.46%
same,Cell cycle percentages ( % ) G0/G1,PC-3 cells [5]; G0/G1,84.02% and 87.57% and 88.06%
same,Cell cycle percentages ( % ) G2/M,PC-3 cells [5]; G2/M,10.01% and 8.39% and 8.02%
same,Cell cycle percentages ( % ) S,PC-3 cells [5]; S,5.97% and 4.04% and 3.92%
same,Cell cycle percentages ( % ) G0/G1,DU145 cells [6],59.02% and 61.19% and 64.25%
same,Cell cycle percentages ( % ) G2/M,DU145 cells [6],23.03% and 20.58% and 18.04%
same,Cell cycle percentages ( % ) S,DU145 cells [6],17.95% and 18.23% and 19.71%
same,Apoptosis (%),22Rv1 cells [7],5.82% and 6.41% and 7.27%
same,Apoptosis (%),PC-3 cells [8],13.98% and 14.78% and 15.2%
same,Apoptosis (%),DU145 cells [9],16.25% and 14.39% and 12.36%
same,Relative proliferation rate mean,22Rv1 cells [10]; day 1,1.1416
same,Relative proliferation rate mean,22Rv1 cells [10]; day 2,1.363
same,Relative proliferation rate mean,22Rv1 cells [10]; day 3,1.755
same,Relative proliferation rate mean,22Rv1 cells [10]; day 4,2.003
same,Relative proliferation rate mean,PC-3 cells [11]; day 0,1
same,Relative proliferation rate,PC-3 cells [11]; day 0,1
same,optical density,PC-3 cells [11]; day 0,0.261
same,Relative proliferation rate mean,PC-3 cells [11]; day 1,1.157
same,Relative proliferation rate,PC-3 cells [11]; day 1,1.143 and 1.182 and 1.147
same,optical density,PC-3 cells [11]; day 1,0.298 and 0.308 and 0.299
same,Relative proliferation rate mean,PC-3 cells [11]; day 2,1.563
same,Relative proliferation rate,PC-3 cells [11]; day 2,1.569 and 1.565 and 1.554
same,optical density,PC-3 cells [11]; day 2,0.409 and 0.408 and 0.405
same,Relative proliferation rate mean,PC-3 cells [11]; day 3,2.215
same,Relative proliferation rate,PC-3 cells [11]; day 3,2.206 and 2.244 and 2.194
same,optical density,PC-3 cells [11]; day 3,0.575 and 0.585 and 0.572
same,Relative proliferation rate mean,PC-3 cells [11]; day 4,4.39
same,Relative proliferation rate,PC-3 cells [11]; day 4,4.419 and 4.354 and 4.396
same,optical density,PC-3 cells [11]; day 4,1.152 and 1.135 and 1.146
same,Relative proliferation rate mean,DU145 cells [12]; day 1,1.596
same,Relative proliferation rate mean,DU145 cells [12]; day 2,2.367
same,Relative proliferation rate mean,DU145 cells [12]; day 3,5.211
same,Relative proliferation rate mean,DU145 cells [12]; day 4,6.975
same,Cell invasion (cell number),PC-3 cells [13],1678 cell number and 1789 cell number and 1654 cell number
same,Cell invasion (cell number),DU145 cells [14],1998 cell number and 2045 cell number and 2102 cell number
same,Cell migration (cell number),22Rv1 cells [15],1008 cell number and 1108 cell number and 1169 cell number
same,Cell migration (cell number),PC-3 cells [16],267 cell number and 257 cell number and 249 cell number
same,Cell migration (cell number),DU145 cells [17],4289 cell number and 4310 cell number and 4198 cell number

# Source: PMC9133015 (Nature Communications, 2022)
